The results in this text go back to patent publication US9409952B2, “Peptide-compound cyclization method” (Chugai Seiyaku Kabushiki Kaisha, priority 2011, dated 2016).

Like-named read-outs stand apart in the source and are kept apart here. Positions of bridges follow the written chain, without caps; N, C: chain ends. Non-standard residues stand in square brackets, D forms with d. Residues, ends and D or L forms follow the SMILES beside them. *: point of attachment. Ala(1H-tetrazol-5-yl) = N[C@@H](Cc1nnn[nH]1)C(=O)O; NMePhe(3-Cl) = CN[C@@H](Cc1cccc(Cl)c1)C(=O)O; NMeF = CN[C@@H](Cc1ccccc1)C(=O)O; NMeL = CN[C@@H](CC(C)C)C(=O)O; NMeA = CN[C@@H](C)C(=O)O; Piperidide = C1CCN(*)CC1; Sar = CNCC(=O)O

Series [1] is described as follows: PAMPA (parallel artificial membrane permeability assay). The settings on record: for Papp at 18 hours, 50 µM: PAMPA. Type of series: in vitro ADME. Put shortly: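 Artificial membrane was 10% (w/v) egg lecithin plus 0.5% (w/v) cholesterol in dodecane on a PVDF filter. A 10 mM DMSO stock was added at 0.5% (v/v) to donor buffer (50 mM MOPSO, pH 6.5, 5.0% glycocholic acid). After 18 h at 37 °C, LC/MS or LC/UV gave donor and acceptor levels for Pe.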

Series [2] in a line: Metabolic stability in human hepatic microsome. Type of series: in vitro ADME. The settings on record: microsomes.
Where [3] appears, read: membrane permeation rate (Pe), 50 mM MOPSO buffer pH 6.5 with 5.0% glycocholic acid, 37° C., 18 hours, read-out: iPAMPA Pe.
Where [4] appears, read: pH 7.4, human hepatic microsome, NADPH(+), read-out: CL NADPH(+).
[5] abbreviates: membrane permeation rate (Pe), 50 mM MOPSO buffer pH 6.5 with 5.0% glycocholic acid, 37° C., 18 hours.

On to `CC(C)C[C@@H]1NC(=O)[C@H](CC(C)C)N(C)C(=O)C[C@@H](C(=O)N2CCCCC2)NC(=O)[C@H](CC(C)C)N(C)C(=O)[C@H](CC(C)C)N(C)C(=O)[C@H](Cc2nn[nH]n2)NC(=O)[C@H](CC(C)C)N(C)C(=O)[C@H](Cc2ccccc2)N(C)C(=O)[C@H](CC(C)C)NC(=O)[C@H](Cc2ccccc2)N(C)C(=O)[C@H](CC(C)C)N(C)C1=O` [DP-908] ([NMeL]L[NMeL][NMeF]L[NMeF][NMeL][Ala(1H-tetrazol-5-yl)][NMeL][NMeL]D-Piperidide; lactam N-11), for which the Papp at 18 hours, 50 µM in series [1] (setting [3]) was 1.6 ×10⁻⁶ cm/s. The microsomal CLint at 1 uM in series [2] (setting [4]) came out at 3 µL/min/mg.
For `CC(C)C[C@H]1NC(=O)[C@H](Cc2ccccc2)N(C)C(=O)[C@H](CC(C)C)N(C)C(=O)[C@H](C)NC(=O)[C@H](CC(C)C)N(C)C(=O)[C@H](Cc2ccccc2)N(C)C(=O)[C@H](Cc2nn[nH]n2)NC(=O)C[C@@H](C(=O)N2CCCCC2)NC(=O)[C@H](CC(C)C)N(C)C(=O)[C@H](CC(C)C)N(C)C1=O` [DP-909] ([Ala(1H-tetrazol-5-yl)][NMeF][NMeL]A[NMeL][NMeF][dL][NMeL][NMeL]D-Piperidide; lactam N-10), the Papp at 18 hours, 50 µM in series [1] (setting [3]) worked out at 12 ×10⁻⁶ cm/s. Besides, the microsomal CLint at 1 uM in series [2] (setting [4]) came to 15 µL/min/mg.
Take `CC[C@H](C)[C@H](NC(=O)[C@H](CC(C)C)N(C)C(=O)[C@H](C)N(C)C(=O)[C@@H](NC(=O)[C@H](CC(C)C)N(C)C(=O)[C@@H]1CC(=O)N[C@H](C(C)C)C(=O)N(C)[C@@H](C)C(=O)N(C)[C@@H](Cc2cccc(Cl)c2)C(=O)N(C)[C@@H](CC(C)C)C(=O)N[C@@H]([C@@H](C)O)C(=O)N(C)[C@@H](CC(C)C)C(=O)N1)[C@@H](C)CC)C(=O)N1CCCCC1` [DP-911] ([dV][NMeA][NMePhe(3-Cl)][NMeL]T[NMeL]D[NMeL]I[NMeA][NMeL]I-Piperidide; lactam N-7): in series [1] (setting [5]), the “iPAMPA Pe” value was determined as 1.0E−07. Besides, in series [2] (setting [4]), the microsomal CLint at 1 uM is 152 µL/min/mg.
On to `CC[C@H](C)[C@H](NC(=O)CN(C)C(=O)[C@H](Cc1ccccc1)N(C)C(=O)[C@H](CC(C)C)N(C)C(=O)[C@@H](NC(=O)[C@@H]1CC(=O)N(C)[C@@H](C)C(=O)N[C@@H](CC(C)C)C(=O)N(C)[C@@H](CC(C)C)C(=O)N(C)[C@@H](C)C(=O)N(C)[C@@H](Cc2cccc(Cl)c2)C(=O)N[C@@H]([C@@H](C)O)C(=O)N1)C(C)C)C(=O)N1CCCCC1` [DP-912] ([NMeA]L[NMeL][NMeA][NMePhe(3-Cl)]TDV[NMeL][NMeF][Sar]I-Piperidide; lactam N-7), for which the Papp at 18 hours, 50 µM in series [1] (setting [3]) amounted to 1.3 ×10⁻⁶ cm/s. In addition, in series [2] (setting [4]), the microsomal CLint at 1 uM worked out at 8 µL/min/mg.
With `CC[C@H](C)[C@@H]1NC(=O)[C@H](C(C)C)NC(=O)[C@H](Cc2ccccc2)N(C)C(=O)[C@H](C(C)C)NC(=O)[C@H](CC(C)C)N(C)C(=O)[C@H](C)NC(=O)C[C@@H](C(=O)N(C)[C@@H](Cc2ccccc2)C(=O)N(C)[C@@H](CC(C)C)C(=O)N[C@H](C(=O)N(C)[C@@H](CC(C)C)C(=O)N[C@H](C(=O)N2CCCCC2)[C@@H](C)CC)[C@@H](C)O)NC1=O` [DP-913] (A[NMeL]V[NMeF]VID[NMeF][NMeL]T[NMeL]I-Piperidide; lactam N-7), in series [1] (setting [5]), the “iPAMPA Pe” value is listed as 1.0E−07. The microsomal CLint at 1 uM in series [2] (setting [4]) turned out to be 30 µL/min/mg.
The like results for `CC[C@H](C)[C@H](NC(=O)[C@H](CC(C)C)NC(=O)[C@H](CC(C)C)N(C)C(=O)[C@H](Cc1cccc(Cl)c1)N(C)C(=O)[C@@H](NC(=O)[C@@H]1CC(=O)N[C@@H](Cc2ccccc2)C(=O)N[C@@H]([C@@H](C)O)C(=O)N[C@@H](CC(C)C)C(=O)N(C)[C@@H](CC(C)C)C(=O)N(C)[C@@H](C)C(=O)N(C)[C@@H](CC(C)C)C(=O)N1)[C@@H](C)CC)C(=O)N1CCCCC1` [DP-914] (FTL[NMeL][NMeA][NMeL]DI[NMePhe(3-Cl)][NMeL]LI-Piperidide; lactam N-7) were, in that order, 1.0E−07 and 29 µL/min/mg.
With `CC[C@H](C)[C@H](NC(=O)[C@H](Cc1ccccc1)N(C)C(=O)[C@H](Cc1cccc(Cl)c1)N(C)C(=O)[C@H](C)N(C)C(=O)[C@@H]1CCCN1C(=O)[C@@H]1CC(=O)N[C@@H](C)C(=O)N(C)[C@@H](CC(C)C)C(=O)N(C)[C@@H](Cc2ccccc2)C(=O)N[C@@H]([C@@H](C)O)C(=O)N(C)[C@@H](Cc2ccccc2)C(=O)N[C@@H](CC(C)C)C(=O)N1)C(=O)N1CCCCC1` [DP-915] (A[NMeL][NMeF]T[NMeF]LDP[NMeA][NMePhe(3-Cl)][NMeF]I-Piperidide; lactam N-7), in series [1] (setting [5]), the “iPAMPA Pe” value stood at 1.0E−07. The microsomal CLint at 1 uM in series [2] (setting [4]) was found to be 89 µL/min/mg.
The like results for `CC[C@H](C)[C@H](NC(=O)[C@H](CC(C)C)N(C)C(=O)[C@H](CC(C)C)N(C)C(=O)[C@H](Cc1ccccc1)N(C)C(=O)[C@@H]1CC(=O)N[C@H](C(C)C)C(=O)N(C)[C@@H](Cc2cccc(Cl)c2)C(=O)N(C)[C@@H](C)C(=O)N(C)[C@@H](CC(C)C)C(=O)N[C@@H]([C@@H](C)O)C(=O)N(C)[C@@H](CC(C)C)C(=O)N1)C(=O)N1CCCCC1` [DP-916] ([dV][NMePhe(3-Cl)][NMeA][NMeL]T[NMeL]D[NMeF][NMeL][NMeL]I-Piperidide; lactam N-7) were, in that order, 1.0E−07 and 55 µL/min/mg.
The like results for `CC[C@H](C)[C@H](NC(=O)[C@H](Cc1ccccc1)NC(=O)[C@@H](NC(=O)[C@@H]1CC(=O)N[C@H](C)C(=O)N(C)[C@@H](CC(C)C)C(=O)N[C@@H]([C@@H](C)O)C(=O)N(C)[C@@H](CC(C)C)C(=O)N(C)[C@@H](Cc2ccccc2)C(=O)N(C)[C@@H](CC(C)C)C(=O)N1)C(C)C)C(=O)N[C@H](C(=O)N1CCCCC1)[C@@H](C)CC` [DP-917] ([dA][NMeL]T[NMeL][NMeF][NMeL]DVFII-Piperidide; lactam N-7) were, in that order, 1.0E−07 and 177 µL/min/mg.
For the compound `CC[C@H](C)[C@H](NC(=O)[C@H](C)N(C)C(=O)[C@H](Cc1ccccc1)N(C)C(=O)[C@H](CC(C)C)N(C)C(=O)[C@@H]1CC(=O)N[C@@H](C)C(=O)N(C)[C@@H](Cc2ccccc2)C(=O)N(C)[C@@H](CC(C)C)C(=O)N[C@@H]([C@@H](C)O)C(=O)N(C)CC(=O)N(C)[C@@H](Cc2ccccc2)C(=O)N1)C(=O)N1CCCCC1` [DP-918] (A[NMeF][NMeL]T[Sar][NMeF]D[NMeL][NMeF][NMeA]I-Piperidide; lactam N-7), in series [1] (setting [3]), the Papp at 18 hours, 50 µM is 5.3 ×10⁻⁶ cm/s. Moreover, in series [2] (setting [4]), the microsomal CLint at 1 uM is 55 µL/min/mg.
The like results for `CC[C@H](C)[C@H](NC(=O)[C@H](CC(C)C)NC(=O)[C@H](CC(C)C)N(C)C(=O)CN(C)C(=O)[C@@H]1CC(=O)N[C@H](C)C(=O)N[C@@H]([C@@H](C)O)C(=O)N(C)[C@@H](CC(C)C)C(=O)N[C@@H]([C@@H](C)CC)C(=O)N(C)[C@@H](CC(C)C)C(=O)N[C@@H](CC(C)C)C(=O)N1)C(=O)N1CCCCC1` [DP-919] ([dA]T[NMeL]I[NMeL]LD[Sar][NMeL]LI-Piperidide; lactam N-7) were, in that order, 27 ×10⁻⁶ cm/s and 128 µL/min/mg.
On the same counts, the results for `CC[C@H](C)[C@H](NC(=O)[C@H](Cc1ccccc1)N(C)C(=O)[C@H](CC(C)C)N(C)C(=O)[C@@H](NC(=O)[C@@H]1CC(=O)N(C)[C@@H](C)C(=O)N[C@@H]([C@@H](C)CC)C(=O)N(C)[C@@H](CC(C)C)C(=O)N[C@@H]([C@@H](C)O)C(=O)N[C@@H](CC(C)C)C(=O)N(C)[C@@H](Cc2cccc(Cl)c2)C(=O)N1)C(C)C)C(=O)N1CCCCC1` [DP-920] ([NMeA]I[NMeL]TL[NMePhe(3-Cl)]DV[NMeL][NMeF]I-Piperidide; lactam N-7) are 0.22 ×10⁻⁶ cm/s and 27 µL/min/mg.
On the same counts, the results for `CC[C@H](C)[C@H](NC(=O)[C@H](CC(C)C)N(C)C(=O)[C@H](Cc1ccccc1)NC(=O)[C@H](Cc1ccccc1)N(C)C(=O)[C@@H]1CC(=O)N(C)[C@@H](C)C(=O)N[C@@H](C(C)C)C(=O)N[C@@H](CC(C)C)C(=O)N(C)[C@@H](Cc2ccccc2)C(=O)N[C@@H](CC(C)C)C(=O)N[C@@H]([C@@H](C)O)C(=O)N1)C(=O)N1CCCCC1` [DP-921] ([NMeA]VL[NMeF]LTD[NMeF]F[NMeL]I-Piperidide; lactam N-7) are 0.34 ×10⁻⁶ cm/s and 88 µL/min/mg.
`CC[C@H](C)[C@H](NC(=O)[C@@H](NC(=O)[C@H](Cc1ccccc1)NC(=O)[C@H](CC(C)C)N(C)C(=O)[C@@H](NC(=O)[C@@H]1CC(=O)N[C@@H](C)C(=O)N(C)[C@@H](C)C(=O)N(C)[C@@H](Cc2ccccc2)C(=O)N[C@@H]([C@@H](C)O)C(=O)N(C)[C@@H](Cc2ccccc2)C(=O)N[C@@H](CC(C)C)C(=O)N2CCC[C@H]2C(=O)N1)[C@@H](C)CC)C(C)C)C(=O)N1CCCCC1` [DP-922] (A[NMeA][NMeF]T[NMeF]LPDI[NMeL]FVI-Piperidide; lactam N-8) registered a Papp at 18 hours, 50 µM in series [1] (pH 6.5) of 0.12 ×10⁻⁶ cm/s. The microsomal CLint at 1 uM in series [2] (human, pH 7.4, CL NADPH(+)) amounted to 70 µL/min/mg.
`CC[C@H](C)[C@H](NC(=O)[C@H](Cc1cccc(Cl)c1)N(C)C(=O)[C@H](CC(C)C)NC(=O)[C@H](C)N(C)C(=O)[C@H](CC(C)C)N(C)C(=O)[C@@H]1CC(=O)N[C@@H](Cc2ccccc2)C(=O)N(C)[C@@H](Cc2ccccc2)C(=O)N2CCC[C@H]2C(=O)N[C@@H](CC(C)C)C(=O)N(C)[C@@H](Cc2cccc(Cl)c2)C(=O)N[C@@H]([C@@H](C)O)C(=O)N[C@@H](CC(C)C)C(=O)N1)C(=O)N1CCCCC1` [DP-923] (F[NMeF]PL[NMePhe(3-Cl)]TLD[NMeL][NMeA]L[NMePhe(3-Cl)]I-Piperidide; lactam N-8) returned a Papp at 18 hours, 50 µM in series [1] (pH 6.5) of 0.1 ×10⁻⁶ cm/s. For the same compound, in series [2] (human, pH 7.4, CL NADPH(+)), the microsomal CLint at 1 uM came to 8 µL/min/mg.
